The values that follow come from the METLIN SMRT retention time set (Domingo-Almenara et al. 2019).

This data set in a line: gradient 5% acetonitrile 3 min, to 50% in 2 min, to 85% in 15 min, held 3 min, 100 µL/min. The conditions noted are these: column: Zorbax Extend-C18 2.1 x 50 mm; eluents: water / acetonitrile, 0.1% formic acid. The method in brief: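 The mobile phases were water and acetonitrile, each with 0.1% formic acid, pumped at 100 μL/min through a Zorbax Extend-C18 column (2.1 × 50 mm, 1.8 μm). Pure standards were injected as mixtures of ~100 molecules and detected by a quadrupole time-of-flight mass spectrometer in positive and negative ionization mode. Retention time came from computationally picked adduct peaks, each inspected by hand.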
In turn, `Cc1cc(C)c(NC(=O)Cn2nc3n(c2=O)CCCC3)c(C)c1` gave an RP-LC retention time of 684 s.
Compound `O=C(Nc1ccc2c(c1)OCCO2)c1cnc(-c2ccc(F)cc2)nc1-c1ccncc1` showed an RP-LC retention time of 831 s.
With `COc1ccccc1-c1nnc(-c2ccc(OC)c(S(=O)(=O)N3CCCCCC3)c2)o1`, the RP-LC retention time came out at 1010 s.
With `COc1ccccc1-c1nc(C2CCN(C(=O)C3COc4ccccc4O3)CC2)no1` (centres undefined), the RP-LC retention time was found to be 962 s.
Regarding `COc1cc(NC(=O)N2CCN(c3cc(C)nc(N4CCCCC4)n3)CC2)cc(OC)c1OC`, the RP-LC retention time was 669 s.
The figure for `O=C(Nc1ccccc1)C1CCCN(c2ccc3cc(S(=O)(=O)N4CCCC4)ccc3n2)C1` (centres undefined) is 773 s; for `Cn1c(=O)sc2cc(S(=O)(=O)N3CCC(C(=O)Nc4cccc(C#N)c4)CC3)ccc21` it is 860 s; for `O=C(c1nnc(-c2ccc(S(=O)(=O)N3CCCC3)cc2)o1)N1CCN(C2CCCCC2)CC1` it is 658 s.
`Cc1cccc(C)c1NC(=O)Cn1nc2n(c1=O)CCCC2` yielded an RP-LC retention time of 632 s.
As to `Cn1ncc2c(N3CCOCC3)nc(C(=O)NCc3ccccc3)nc21`, the RP-LC retention time stood at 701 s.
As for `CCc1nc2cc3c(cc2n1CC(=O)NC(C)c1ccc2c(c1)OCCCO2)OCCO3` (centres undefined), the RP-LC retention time was 628 s.
`Clc1ccc2nc3ccccc3cc2c1` returned an RP-LC retention time of 842 s.
`C=CCNC(=O)COc1cccc2c(=O)n(CC=C)ccc12` gave an RP-LC retention time of 700 s.
With `Nc1ncnc(Nc2ccccc2Cl)c1[N+](=O)[O-]`, the RP-LC retention time amounted to 777 s.
Compound `Cc1nnc(-c2nnc(NCC(C)C)c3ccccc23)o1` displayed an RP-LC retention time of 652 s.
Compound `CCS(=O)(=O)N1CCCc2cc(C(=O)Nc3cc(OC)ccc3OC)ccc21` came in with an RP-LC retention time of 954 s.
In turn, `Cc1ccccc1-c1noc(-c2nn(-c3cccc(F)c3)ccc2=O)n1` showed an RP-LC retention time of 941 s.
The same measure for `Cc1ccc(C)c(NC(=O)NC2CCN(c3ccccc3)C2=O)c1` (centres undefined): 823 s; for `O=C([C@@H]1C[C@H](F)CN1S(=O)(=O)c1cc(F)ccc1F)N1CCc2ccccc2C1`: 906 s; for `O=C(NCc1ccccn1)C1CCN(c2cnc(N3CCCC3)nc2)CC1`: 547 s.
With `COc1ccc(NC(=O)CN2C(=O)CCc3cc(Br)ccc32)c(OC)c1`, the RP-LC retention time was 900 s.
Take `Cc1noc([C@]23CN(CCc4ccccc4)CC[C@H]2CN(CCc2ccccc2)C3)n1`: the RP-LC retention time was found to be 573 s.
Take `Cc1ccc(NC(=O)c2cccn2Cc2noc(C)n2)c(Cl)c1`: the RP-LC retention time was 945 s.
The figure for `COCCN1C(=O)c2ccccc2C(C(=O)Nc2ccc(OC)cc2)C12CCCC2` (centres undefined) is 852 s; for `O=C(c1ccc(-c2ccsc2)nc1)N1CCCC1` it is 716 s; for `CCn1c(=O)c(N2CCN(C(=O)NCCCOC)CC2)nc2ccccc21` it is 727 s.
As for `Cc1nc(C)c(C(=O)N2CCC(Oc3ccc(-c4noc(C5CC5)n4)cc3)C2)s1` (centres undefined), the RP-LC retention time was 860 s.
The compound `CCCNC(=O)C1CCCN(c2nc3ccsc3c(=O)n2-c2cccc(OC)c2)C1` (centres undefined) came in with an RP-LC retention time of 735 s.
As for `Cc1ccn2c(NC(=O)COc3ccc(Cl)cc3Cl)c(-c3ccc(F)cc3)nc2c1`, the RP-LC retention time was 804 s.
The figure for `O=C(CCC(=O)N1CC2CCCN2c2ccccc21)NCc1cccs1` (centres undefined) is 865 s; for `COc1ccc(C(=O)Nc2ccc3c(c2)Sc2ncccc2C(=O)N3C)cn1` it is 710 s.
Turning to `CCCNC(=O)C1CC(=O)N(CCc2c[nH]c3ccc(Cl)cc23)C1` (centres undefined), the RP-LC retention time was found to be 708 s.
As to `CS(=O)(=O)N1CCC(OC2CCN(C(=O)NCCc3ccccc3)CC2)CC1`, the RP-LC retention time stood at 724 s.
The figure for `CCc1noc(-c2cccnc2N2CCCN(Cc3cccc(C)c3)CC2)n1` is 690 s; for `COc1ccc(-c2c(C(=O)Nc3cc(OC)ccc3OC)nc3ccccn23)cc1` it is 1030 s.
The figure for `Cc1noc([C@@H]2CC(F)(F)CN2S(=O)(=O)c2ccccc2)n1` is 858 s; for `O=C(Cc1cccs1)N1CCN(c2nnc3ccc(C(F)(F)F)cn23)CC1` it is 666 s; for `COc1ccc(CNC(=O)Nc2cc3c(cc2N2CCOCC2)n(C)c(=O)n3C)cc1` it is 694 s.
For `O=C(CN1C(=O)C2CCCCN2c2ccc(S(=O)(=O)N3CCCC3)cc21)NCc1ccccc1` (centres undefined), the RP-LC retention time was determined as 921 s.
Compound `CCN1c2ccc(F)cc2C(=O)NC12CCN(C(=O)Cc1ccc(OC)cc1)CC2` displayed an RP-LC retention time of 784 s.
Regarding `COc1ccc(S(=O)(=O)N2CCCC(C(=O)Nc3ccccc3Br)C2)cc1C` (centres undefined), the RP-LC retention time is 1040 s.
The same measure for `Cc1ccc2nc(NC(=O)CSc3nnc(CNC(=O)c4ccco4)o3)sc2c1`: 705 s.
`CCc1c(C(=O)OC)ncc2[nH]c3cc(OC)c(OC)cc3c12` returned an RP-LC retention time of 702 s.
The figure for `O=C1NCCCn2nc(C3CCN(S(=O)(=O)c4ccc5c(c4)CCC5)CC3)cc21` is 800 s.
Consider `Cc1nnc(NC(=O)C2CCN(C(=O)c3ccc(F)cc3)CC2)s1`, for which the RP-LC retention time worked out at 624 s.
With `O=C(CSC1CCc2ccccc2NC1=O)Nc1ccccc1` (centres undefined), the RP-LC retention time was found to be 777 s.
As to `CCOc1ccc(NS(=O)(=O)c2cc(C(=O)N3CCN(c4ccc(C)cc4C)CC3)n[nH]2)cc1`, the RP-LC retention time came to 1030 s.
Take `Cc1ccc(S(=O)(=O)NCCc2nc(-c3cccc(-c4ccnn4C)c3)no2)cc1`: the RP-LC retention time came out at 917 s.
`CC(C(=O)N1Cc2c(C(=O)NC3CC3)nn(C)c2C1)c1ccccc1` (centres undefined) had an RP-LC retention time of 708 s.
Take `O=C(c1cccc(Cl)c1)N1CCN(c2cc(-c3ccc(Cl)cc3)[nH]n2)CC1`: the RP-LC retention time was found to be 917 s.
For the compound `O=C(NCc1ccc(F)cc1)N1CC(F)(F)C[C@H]1c1nnc(-c2cnccn2)o1`, the RP-LC retention time was determined as 747 s.
`O=C(c1ccccc1Sc1nccnc1Oc1ccccc1)N1CCOCC1` had an RP-LC retention time of 859 s.
In turn, `Clc1ccccc1-c1nc(-c2ccc(-n3cccn3)nc2)no1` registered an RP-LC retention time of 1270 s.
The figure for `CCC(C(=O)Nc1cc(-c2cn3nc(OC)ccc3n2)ccc1F)c1ccccc1` (centres undefined) is 916 s; for `CS(=O)(=O)c1ccccc1-c1nnc(NC(=O)c2cccc(N3C(=O)CCC3=O)c2)o1` it is 609 s.
`O=C(NCc1cccc(Cl)c1)c1ccc(CN2CCN(C3CCCC3)C(=O)C2=O)cc1`: the RP-LC retention time turned out to be 785 s.
The figure for `CN(C)c1ccc(C(=O)Nc2cnc(N3CCCC3)nc2)cc1` is 702 s; for `Cc1ccc2c(Nc3cccc(Cl)c3)c(C(=O)N3CCOCC3)cnc2n1` it is 606 s.
`O=C1CN(S(=O)(=O)c2cccnc2)C2(CCCC2)CN1CC1CC1` yielded an RP-LC retention time of 746 s.
On to `COc1cccc(CNC(=O)NCCC2CCN(S(=O)(=O)c3ccc(F)cc3)CC2)c1`, for which the RP-LC retention time was found to be 842 s.
The figure for `CCOC(=O)c1c(C)oc2nc(C)nc(NCCN3CCN(c4ccc(OC)cc4)CC3)c12` is 732 s; for `Cn1c(=O)sc2cc(S(=O)(=O)N3CCC(C(=O)NCCC4=CCCCC4)CC3)ccc21` it is 911 s.
Take `Cc1cc(=O)n(CC(=O)NCc2ccccc2Cl)c(N(C)Cc2ccccc2)n1`: the RP-LC retention time stood at 762 s.
`Cc1cc2c(cc1C)N(C(=O)CCl)CC(=O)N2` had an RP-LC retention time of 745 s.
`Cc1ccc(CN2CCCC(c3nc(C(C)C)no3)CCNC(=O)CC2)s1` (centres undefined) yielded an RP-LC retention time of 661 s.
The figure for `Cc1cc(OCC(=O)Nc2nc(-c3ccccc3)cs2)cc(C)c1Cl` is 1250 s; for `CC1=C(C(=O)OCCc2ccccc2)C(c2cccs2)NC(=O)N1` (centres undefined) it is 821 s; for `COC(=O)CCc1sc(Nc2c(C)n[nH]c2C)nc1-c1ccc(OC)cc1` it is 664 s.
In the case of `O=C(Nc1ccc(-c2nc(-c3ccccc3)co2)cc1)c1ccc(Br)o1`, the RP-LC retention time was 1190 s.
As for `O=C(NCc1ccco1)C1CC(=O)N(c2ccc3c(c2)CCN3C(=O)C2CCC2)C1` (centres undefined), the RP-LC retention time is 734 s.
The figure for `O=C(Cn1nc2ccc(SCc3ccc(Cl)cc3)nn2c1=O)NC1CCCCC1` is 870 s.
Compound `CCN(Cc1ccc(OC)cc1)Cc1cc(=O)n2ccc(C)cc2n1` returned an RP-LC retention time of 619 s.
`CCC(=O)N1CCc2cc(N3CC(C(=O)NC4CCCCC4)CC3=O)ccc21` (centres undefined) displayed an RP-LC retention time of 728 s.
`CCOc1cc2c(cc1OCC)C1C(C(=O)NCCCOC)c3ccccc3C(=O)N1CC2` (centres undefined) showed an RP-LC retention time of 744 s.
Take `COc1cc(NC(=O)N2CCC(n3c(C)nc4cccnc43)CC2)cc(OC)c1`: the RP-LC retention time is 637 s.
In turn, `O=C(NCc1cccnc1)c1cccn1-c1nnc(N2CCOCC2)s1` showed an RP-LC retention time of 560 s.
For the compound `CC(Oc1cccc(Cl)c1)c1nc(-c2ccc3c(c2)nnn3CCC(=O)N2CCCC2)no1` (centres undefined), the RP-LC retention time is 1010 s.
Compound `COc1ccc(N2CCN(C(=O)c3sc4cccc(F)c4c3OC)CC2)cc1` returned an RP-LC retention time of 998 s.
The figure for `Cc1cc2c(cc(C(=O)N3CCC(C(=O)N4CCCC4)CC3)n2Cc2c(F)cccc2Cl)o1` is 897 s.
